{"source": "paper PMC5029964", "about": "(Journal of the American Chemical Society, 2016)", "key": {"Irp9": {"target": "Irp9 (Yersinia enterocolitica, UniProt Q9X9I8)", "format": "biochemical", "details": "saturating chorismate 20 μM; magnesium 0–20 mM"}, "EntC": {"target": "T1, EntC (Escherichia coli, UniProt P0AEJ2)", "T1 sequence (P0AEJ2 1-391)": "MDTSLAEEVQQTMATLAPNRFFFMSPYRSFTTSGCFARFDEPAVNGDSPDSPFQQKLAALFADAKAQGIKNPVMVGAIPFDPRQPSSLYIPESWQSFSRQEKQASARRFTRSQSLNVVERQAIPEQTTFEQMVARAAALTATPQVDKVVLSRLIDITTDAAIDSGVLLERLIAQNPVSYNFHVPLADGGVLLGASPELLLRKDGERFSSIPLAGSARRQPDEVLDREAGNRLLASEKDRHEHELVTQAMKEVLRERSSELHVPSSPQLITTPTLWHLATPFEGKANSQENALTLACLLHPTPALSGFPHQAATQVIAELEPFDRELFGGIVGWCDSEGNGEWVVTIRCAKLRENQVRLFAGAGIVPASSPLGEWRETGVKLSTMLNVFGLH", "test": "Steady-state chorismate isomerase activity, PchB-coupled salicylate fluorescence", "format": "biochemical"}, "PchA [1]": {"target": "T2, PchA (Pseudomonas aeruginosa, UniProt Q51508)", "T2 sequence (Q51508 1-476)": "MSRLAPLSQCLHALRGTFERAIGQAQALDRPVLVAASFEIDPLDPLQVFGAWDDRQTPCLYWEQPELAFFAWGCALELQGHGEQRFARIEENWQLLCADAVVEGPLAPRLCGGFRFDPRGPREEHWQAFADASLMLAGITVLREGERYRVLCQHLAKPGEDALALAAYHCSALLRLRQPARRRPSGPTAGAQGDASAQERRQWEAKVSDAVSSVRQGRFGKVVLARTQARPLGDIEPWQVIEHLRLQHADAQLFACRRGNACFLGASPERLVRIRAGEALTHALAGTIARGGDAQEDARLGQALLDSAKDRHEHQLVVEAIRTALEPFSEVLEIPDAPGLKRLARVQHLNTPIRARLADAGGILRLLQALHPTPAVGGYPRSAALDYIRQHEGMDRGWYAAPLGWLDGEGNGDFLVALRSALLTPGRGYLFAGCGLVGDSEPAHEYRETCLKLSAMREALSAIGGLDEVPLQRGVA", "format": "biochemical"}, "PchA, EntC, and Irp9": {"target": "PchA, EntC, and Irp9", "test": "Dissociation constants by intrinsic fluorescence", "format": "binding", "details": "read-out: Kd of E·Mg complexes (range over all three enzymes)"}, "PchB": {"target": "T3, PchB (Pseudomonas aeruginosa, UniProt Q51507)", "T3 sequence (Q51507 1-101)": "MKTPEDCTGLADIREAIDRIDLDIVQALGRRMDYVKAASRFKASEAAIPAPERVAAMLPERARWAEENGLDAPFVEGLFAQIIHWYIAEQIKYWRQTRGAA", "test": "Steady-state PchB lyase activity", "format": "biochemical"}, "[2]": {"system": "MST enzymes (PchA, EntC, Irp9)", "test": "Ligand binding rates by stopped-flow intrinsic fluorescence", "details": "all three enzymes"}, "PchA [3]": {"target": "T2, PchA", "details": "cited from earlier work"}, "Fur": {"target": "Fur", "details": "read-out: Kd for Fe(II) binding; cited from earlier work"}}, "note": "Entries after “also recorded” stand apart in the source; their conditions may differ."}
{"compound": "[Cl-].[Cl-].[Mg+2]", "note": "[magnesium, magnesium chloride]", "values": [{"measurement": "magnesium inhibition in the steady state (shape of magnesium dependence)", "setting": "Irp9", "result": "normal hyperbolic shape; also recorded: did not exhibit the same inhibition"}, {"measurement": "magnesium concentration at which maximal velocity was observed", "setting": "EntC; saturating chorismate 200 μM, magnesium 0–20 mM", "result": "approximately 0.5 mM"}, {"measurement": "magnesium concentrations at which inhibition is noted", "setting": "EntC; steady state", "result": "over 0.5 mM"}, {"measurement": "magnesium concentration at which maximal velocity was observed", "setting": "PchA [1]", "result": "approximately 0.5 mM"}, {"measurement": "magnesium concentrations at which inhibition is noted", "setting": "PchA [1]; steady state", "result": "over 0.5 mM"}, {"measurement": "Kd", "setting": "PchA, EntC, and Irp9", "result": "130 to 190", "unit": "µM"}, {"measurement": "binding of and inhibition by magnesium", "setting": "PchB", "result": "does not bind and is not inhibited"}, {"measurement": "observed rate constant of ligand binding (bound from ∼1.0 ms dead time)", "setting": "[2]; binding complete within stopped-flow dead time, 25 °C", "result": "greater than 1600 s^–1"}, {"measurement": "association rate constants (order of magnitude)", "setting": "[2]; suggested from dead-time bound", "result": "~10^8 M^–1 s^–1"}]}
{"compound": "N[C@@H](CS)C(=O)O", "note": "[cysteine]", "values": [{"measurement": "feedback inhibition of PchA", "setting": "PchA [3]", "result": "no inhibition"}]}
{"compound": "O=S(=O)([O-])[O-].O=S(=O)([O-])[O-].[Fe+2].[NH4+].[NH4+]", "note": "[Fe(II), ferrous ammonium sulfate]", "values": [{"measurement": "effect on PchA activity", "setting": "PchA [3]; 100 μM", "result": "did not alter PchA activity"}, {"measurement": "Kd", "setting": "Fur", "result": 1.2, "unit": "µM"}]}
{"compound": "CN1[C@@H]([C@H]2CSC(c3ccccc3O)=N2)SC[C@H]1C(=O)O", "note": "[pyochelin]", "values": [{"measurement": "feedback inhibition of PchA", "setting": "PchA [3]", "result": "no inhibition"}]}
